Measurements taken from patent US6388109B1, “14,15-cyclopropano steroids of the 19-norandrostane series, method for the production thereof and pharmaceutical preparations containing said compounds” (Jenapharm GmbH & Co. KG, priority 1998, dated 2002).

Assays:
[1] = molecular target: T1, progesterone receptor of the rabbit uterus (Oryctolagus cuniculus, UniProt P06186); experiment: binding to the progesterone receptor of the rabbit uterus (reference substance: progesterone)
T1 construct: progesterone receptor of the rabbit uterus; from tissue; host or cells: rabbit uterus
T1 sequence (P06186 1-930): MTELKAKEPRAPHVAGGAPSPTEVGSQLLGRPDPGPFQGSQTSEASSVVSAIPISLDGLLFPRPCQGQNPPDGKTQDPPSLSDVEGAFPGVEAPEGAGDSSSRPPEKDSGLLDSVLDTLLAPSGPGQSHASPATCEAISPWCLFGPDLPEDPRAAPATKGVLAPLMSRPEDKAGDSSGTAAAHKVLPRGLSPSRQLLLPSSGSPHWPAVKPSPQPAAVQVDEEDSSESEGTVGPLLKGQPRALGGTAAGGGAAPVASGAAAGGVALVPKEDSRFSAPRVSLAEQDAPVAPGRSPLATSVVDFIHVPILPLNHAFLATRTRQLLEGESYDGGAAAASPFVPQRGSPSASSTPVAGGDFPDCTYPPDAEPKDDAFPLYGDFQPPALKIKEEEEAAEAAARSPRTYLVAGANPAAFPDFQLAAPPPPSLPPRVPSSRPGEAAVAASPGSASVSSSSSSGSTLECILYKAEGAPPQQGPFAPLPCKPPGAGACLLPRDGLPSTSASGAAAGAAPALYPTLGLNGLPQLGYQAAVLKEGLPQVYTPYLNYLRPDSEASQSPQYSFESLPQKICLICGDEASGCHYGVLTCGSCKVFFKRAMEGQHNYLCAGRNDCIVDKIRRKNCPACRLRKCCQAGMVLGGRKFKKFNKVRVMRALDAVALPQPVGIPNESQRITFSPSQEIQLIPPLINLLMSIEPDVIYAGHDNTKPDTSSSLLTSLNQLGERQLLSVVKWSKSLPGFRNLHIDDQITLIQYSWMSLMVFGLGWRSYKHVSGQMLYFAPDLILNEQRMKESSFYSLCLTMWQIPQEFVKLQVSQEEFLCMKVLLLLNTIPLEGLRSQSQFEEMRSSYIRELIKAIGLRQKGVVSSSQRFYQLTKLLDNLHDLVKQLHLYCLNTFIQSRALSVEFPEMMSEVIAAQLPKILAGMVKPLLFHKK
Excerpt: Another example is the compound of general formula I—in which R1 and R2 in each case represent a hydrogen atom, R3 means an α-position chloromethyl group, R4 stands for a β-position hydroxy group, and the cyclopropane ring is in β-position—17α-chloromethyl-17β-hydroxy-14β,15β-methylenestr-4-en-3-one (Code J 1364), which binds with 710±80% to the progesterone receptor of the rabbit uterus (reference substance: progesterone).

[2] = tested on: pregnancy maintenance (gestagenic action); experiment: pregnancy maintenance test in mice; type: in vivo
Excerpt: Another example is the compound of general formula I—in which R1 and R2 in each case represent a hydrogen atom, R3 represents an α-position hydrogen atom, R4 stands for a β-position hydroxy group, and the cyclopropane ring is in α-position—17β-hydroxy-14,α,15α-methylenestr-4-en-3-one (J 1129), which in the same test has an approximately 50-fold stronger gestagenic action in comparison to the reference substance norethisterone acetate.

[3] = molecular target: T2, androgen receptor of the rat prostate (Rattus norvegicus, UniProt P15207); experiment: binding to the androgen receptor of the rat prostate (reference substance: R 1881)
T2 construct: androgen receptor of the rat prostate; from tissue; host or cells: rat prostate
T2 sequence (P15207 1-902): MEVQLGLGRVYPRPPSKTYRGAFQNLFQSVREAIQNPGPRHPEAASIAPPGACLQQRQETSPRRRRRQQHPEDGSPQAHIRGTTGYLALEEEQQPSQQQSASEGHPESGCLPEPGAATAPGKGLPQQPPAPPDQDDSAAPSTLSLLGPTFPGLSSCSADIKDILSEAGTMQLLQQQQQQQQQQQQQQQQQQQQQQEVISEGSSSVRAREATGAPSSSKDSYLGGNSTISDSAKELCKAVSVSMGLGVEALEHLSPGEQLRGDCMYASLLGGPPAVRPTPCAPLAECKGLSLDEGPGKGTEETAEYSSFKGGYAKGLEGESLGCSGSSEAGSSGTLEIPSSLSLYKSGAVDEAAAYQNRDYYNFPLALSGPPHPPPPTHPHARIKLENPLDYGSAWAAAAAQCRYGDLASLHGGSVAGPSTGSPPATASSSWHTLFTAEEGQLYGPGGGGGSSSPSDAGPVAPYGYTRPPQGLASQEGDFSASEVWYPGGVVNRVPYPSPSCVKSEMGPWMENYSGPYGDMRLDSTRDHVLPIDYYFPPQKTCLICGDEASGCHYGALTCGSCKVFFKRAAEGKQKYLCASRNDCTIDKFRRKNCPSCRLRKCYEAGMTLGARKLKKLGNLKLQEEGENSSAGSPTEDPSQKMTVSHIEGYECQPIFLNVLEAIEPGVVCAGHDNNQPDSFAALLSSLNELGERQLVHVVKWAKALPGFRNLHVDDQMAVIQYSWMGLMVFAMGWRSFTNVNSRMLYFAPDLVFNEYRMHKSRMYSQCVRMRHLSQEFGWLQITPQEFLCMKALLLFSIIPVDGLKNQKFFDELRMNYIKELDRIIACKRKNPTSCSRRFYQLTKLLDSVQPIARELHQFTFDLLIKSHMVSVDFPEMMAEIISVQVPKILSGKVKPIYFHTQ

Structure (SMILES) | binding to the progesterone receptor [1] | gestagenic action in comparison to the reference substance norethisterone acetate ([2]; pregnancy maintenance test, stronger than norethisterone acetate) | binding to the androgen receptor ([3]; reference substance: 17β-hydroxy-17α-methyl-estra-4,9,11-trien-3-one (R 1881)) | effectiveness in the pregnancy maintenance test compared with norethisterone acetate ([2]; reference gestagen norethisterone acetate) | affinity to the androgen receptor (in words) ([3]; reference substance: R 1881)
CC12CCC3C4CCC(=O)C=C4CCC3C13CC3CC2(O)CCl (stereo not drawn) [J 1364, 17α-Chloromethyl-17β-hydroxy-14β,15β-methylenestr-4-en-3-one] | 710±80% |  |  |  | 
C[C@]12CC[C@H]3[C@@H](CCC4=CC(=O)CC[C@@H]43)[C@@]13C[C@H]3C[C@@H]2O [J 1129, 17β-Hydroxy-14α,15α-methylenestr-4-en-3-one] | 42±5% | approximately 50 fold | 59±7% |  | 
COC[C@]1(O)C[C@H]2C[C@]23[C@@H]2CCC4=CC(=O)CC[C@@H]4[C@H]2CC[C@]13C [J 1222, 17β-Hydroxy-17α-(methoxymethyl)-14β,15β-methylenestr-4-en-3-one] | 52±4% |  |  | just as effective | virtually no affinity
